Several values for one entry are separate records, joined by “and”; a condition that tells them apart may be missing. Identical values can stand only once. Inconclusive results and toxic doses are left out.
Tested on: L1210 leukemia ip in BDF1 mice, survival T/C
Assay: NCI In Vivo Anticancer Drug Screen. Data for tumor model L1210 Leukemia (intraperitoneal) in B6D2F1 (BDF1) mice
Conditions: endpoint: mean survival time, higher = longer survival
How it was run: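 Transplanted-tumor mice were given test agent; controls received vehicle only. Survival readings from the two groups were divided (treated over control).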

[1] = dose: 100.0 mg/kg/injection, schedule: Q01DX001 (ip), vehicle: carboxymethylcellulose (CMC)
[2] = dose: 200.0 mg/kg/injection, schedule: Q01DX001 (ip), vehicle: carboxymethylcellulose (CMC)
[3] = dose: 400.0 mg/kg/injection, schedule: Q01DX001 (ip), vehicle: carboxymethylcellulose (CMC)
[4] = dose: 100.0 mg/kg/injection, schedule: Q01DX001 (ip), vehicle: saline with Tween-80
[5] = dose: 200.0 mg/kg/injection, schedule: Q01DX001 (ip), vehicle: saline with Tween-80
[6] = dose: 400.0 mg/kg/injection, schedule: Q01DX001 (ip), vehicle: saline with Tween-80
[7] = dose: 100.0 mg/kg/injection, schedule: Q04DX003 (ip), vehicle: saline with Tween-80
[8] = dose: 200.0 mg/kg/injection, schedule: Q01DX009 (ip), vehicle: saline with Tween-80
[9] = dose: 400.0 mg/kg/injection, schedule: Q01DX009 (ip), vehicle: saline with Tween-80
[10] = dose: 100.0 mg/kg/injection, schedule: Q04DX003 (ip), vehicle: Klucel (hydroxypropylcellulose) (HPC)
[11] = dose: 200.0 mg/kg/injection, schedule: Q04DX003 (ip), vehicle: Klucel (hydroxypropylcellulose) (HPC)
[12] = dose: 400.0 mg/kg/injection, schedule: Q04DX003 (ip), vehicle: Klucel (hydroxypropylcellulose) (HPC)
[13] = dose: 50.0 mg/kg/injection, schedule: Q01DX009 (ip), vehicle: saline
[14] = dose: 100.0 mg/kg/injection, schedule: Q01DX009 (ip), vehicle: saline
[15] = dose: 100.0 mg/kg/injection, schedule: Q04DX002 (ip), vehicle: saline

`O=C(Nc1nccs1)C(Cl)Cl` was tested, and the T/C [1] was 103 % of control, the T/C (dose: 177.0 mg/kg/injection, schedule: Q01DX001 (ip), vehicle: Klucel (hydroxypropylcellulose) (HPC)) was 105 % of control and the T/C [2] was 118 % of control. The T/C (dose: 266.0 mg/kg/injection, schedule: Q01DX001 (ip), vehicle: Klucel (hydroxypropylcellulose) (HPC)) was 107 % of control, the T/C (dose: 400.0 mg/kg/injection, schedule: Q01DX001 (ip), vehicle: Klucel (hydroxypropylcellulose) (HPC)) was 105 % of control and the T/C [3] was 249 % of control. The T/C (dose: 600.0 mg/kg/injection, schedule: Q01DX001 (ip), vehicle: Klucel (hydroxypropylcellulose) (HPC)) was 105 % of control.
With `CS(=O)(=O)NOCCCCONS(C)(=O)=O` the T/C [4] was 103 % of control, the T/C [5] was 91 % of control and the T/C [6] was 92 % of control.
In the case of `CC(=O)/C(=C\c1ccc(Cl)c(Cl)c1)C(=O)c1ccccc1`, the T/C (dose: 100.0 mg/kg/injection, schedule: Q01DX009 (ip), vehicle: other) is reported as 97 % of control, the T/C (dose: 100.0 mg/kg/injection, schedule: Q04DX003 (ip), vehicle: other) is reported as 95 % of control and the T/C (dose: 200.0 mg/kg/injection, schedule: Q01DX009 (ip), vehicle: other) is reported as 103 % of control. The T/C (dose: 200.0 mg/kg/injection, schedule: Q04DX003 (ip), vehicle: other) was 91 % of control and the T/C (dose: 400.0 mg/kg/injection, schedule: Q04DX003 (ip), vehicle: other) was 93 % of control.
In the case of `CC(C)C(CN)(CCCCN1CCCCC1)c1cccc2ccccc12` (configuration not stated), the T/C [7] is reported as 95 % of control.
With `O=S(=O)(Nc1c(O)ccc2ccccc12)c1ccccc1` the T/C (dose: 100.0 mg/kg/injection, schedule: Q01DX009 (ip), vehicle: saline with Tween-80) was 95 % of control, the T/C [8] was 93 % of control and the T/C [9] was 90 % of control.
`OC1c2ccccc2-c2ccccc21` was tested, and the T/C (dose: 100.0 mg/kg/injection, schedule: Q04DX003 (ip), vehicle: saline) was 91 % of control, the T/C (dose: 200.0 mg/kg/injection, schedule: Q04DX003 (ip), vehicle: saline) was 93 % of control and the T/C (dose: 400.0 mg/kg/injection, schedule: Q04DX003 (ip), vehicle: saline) was 93 % of control.
In the case of `CN(C)C1C(=O)C(C(N)=O)=C(O)C2(O)C(=O)C3=C(O)c4c(O)cccc4C(C)(O)C3C(O)C12` (configuration not stated), the T/C (dose: 19.5 mg/kg/injection, schedule: Q01DX Z (ip), vehicle: carboxymethylcellulose (CMC)) is reported as 94 % of control, the T/C (dose: 39.0 mg/kg/injection, schedule: Q01DX Z (ip), vehicle: carboxymethylcellulose (CMC)) is reported as 91 % of control and the T/C (dose: 50.0 mg/kg/injection, schedule: Q01DX001 (ip), vehicle: saline) is reported as 93 % of control. The T/C (dose: 50.0 mg/kg/injection, schedule: Q01DX Z (ip), vehicle: water) was 117 % of control, the T/C (dose: 78.0 mg/kg/injection, schedule: Q01DX Z (ip), vehicle: carboxymethylcellulose (CMC)) was 89 % of control and the T/C (dose: 100.0 mg/kg/injection, schedule: Q01DX001 (ip), vehicle: saline) was 90 % of control. For the same compound, the T/C (dose: 100.0 mg/kg/injection, schedule: Q01DX Z (ip), vehicle: water) was 119 % of control, the T/C (dose: 156.0 mg/kg/injection, schedule: Q01DX Z (ip), vehicle: carboxymethylcellulose (CMC)) was 98 % of control and the T/C (dose: 200.0 mg/kg/injection, schedule: Q01DX001 (ip), vehicle: saline) was 95 % of control. For the same compound, the T/C (dose: 400.0 mg/kg/injection, schedule: Q01DX001 (ip), vehicle: saline) was 101 % of control.
In the case of `CC(C)(C)OC(=O)C(C1NC2C(=O)OCC2(CO)S1)N1C(=O)c2ccccc2C1=O` (configuration not stated), the T/C [10] is reported as 95 % of control, the T/C [11] is reported as 92 % of control and the T/C [12] is reported as 101 % of control.
For `Cn1c(O)c(N)c(=O)n(C)c1=O`, the T/C [13] was 98 % of control and the T/C [14] was 92 % of control.
With `Cc1ccc(NC(=O)Nc2ccc(C)c(NC(=O)Nc3ccc(C)cc3C)c2)c(C)c1` the T/C [7] was 90 % of control, the T/C [8] was 103 % of control and the T/C (dose: 200.0 mg/kg/injection, schedule: Q04DX003 (ip), vehicle: saline with Tween-80) was 95 % of control. For the same compound, the T/C [9] was 109 % of control and the T/C (dose: 400.0 mg/kg/injection, schedule: Q04DX003 (ip), vehicle: saline with Tween-80) was 93 % of control.
For `CNc1ccc(C(=O)O)cc1`, the T/C [13] was 102 % of control, the T/C [14] was 109 % of control and the T/C (dose: 200.0 mg/kg/injection, schedule: Q01DX009 (ip), vehicle: saline) was 106 % of control.
With `CC(=O)Nc1ccc(O)cc1` the T/C [1] was 93 % of control, the T/C [15] was 116 % of control and the T/C [10] was 97 % of control. For the same compound, the T/C [2] was 96 % of control, the T/C (dose: 200.0 mg/kg/injection, schedule: Q04DX002 (ip), vehicle: saline) was 100 % of control and the T/C [11] was 104 % of control. For the same compound, the T/C [3] was 107 % of control, the T/C (dose: 400.0 mg/kg/injection, schedule: Q04DX002 (ip), vehicle: saline) was 88 % of control and the T/C [12] was 111 % of control.
In the case of `FC(F)(F)c1nc2nc(Cl)c(Cl)nc2s1`, the T/C (dose: 0.5 mg/kg/injection, schedule: Q01DX009 (ip), vehicle: other) is reported as 116 % of control, the T/C (dose: 1.0 mg/kg/injection, schedule: Q01DX009 (ip), vehicle: other) is reported as 106 % of control and the T/C (dose: 2.0 mg/kg/injection, schedule: Q01DX009 (ip), vehicle: other) is reported as 101 % of control. For the same compound, the T/C (dose: 3.12 mg/kg/injection, schedule: Q01DX009 (ip), vehicle: other) was 114 % of control, the T/C (dose: 4.0 mg/kg/injection, schedule: Q01DX009 (ip), vehicle: other) was 107 % of control and the T/C (dose: 6.25 mg/kg/injection, schedule: Q01DX009 (ip), vehicle: other) was 103 % of control. For the same compound, the T/C (dose: 12.5 mg/kg/injection, schedule: Q01DX009 (ip), vehicle: other) was 103 % of control and the T/C (dose: 25.0 mg/kg/injection, schedule: Q01DX009 (ip), vehicle: other) was 101 % of control and 103 % of control.
For `O=C(Cl)C1CCCCC1`, the T/C (dose: 6.25 mg/kg/injection, schedule: Q01DX015 (ip), vehicle: saline) was 93 % of control, the T/C (dose: 12.5 mg/kg/injection, schedule: Q01DX015 (ip), vehicle: saline) was 89 % of control and the T/C (dose: 25.0 mg/kg/injection, schedule: Q01DX015 (ip), vehicle: saline) was 93 % of control and 96 % of control. The T/C (dose: 50.0 mg/kg/injection, schedule: Q01DX015 (ip), vehicle: saline) was 90 % of control.
In the case of `CCCCCCCc1nc2nn[nH]c(=O)c2[nH]1`, the T/C [4] is reported as 94 % of control, the T/C [5] is reported as 100 % of control and the T/C [6] is reported as 90 % of control.
For `CCCCCCCCCCN=C(N)N/C(N)=N/S(=O)(=O)c1ccc(OCCCC)cc1`, the T/C (dose: 100.0 mg/kg/injection, schedule: Q04DX002 (ip), vehicle: Klucel (hydroxypropylcellulose) (HPC)) was 103 % of control, the T/C (dose: 200.0 mg/kg/injection, schedule: Q04DX002 (ip), vehicle: Klucel (hydroxypropylcellulose) (HPC)) was 95 % of control and the T/C (dose: 400.0 mg/kg/injection, schedule: Q04DX002 (ip), vehicle: Klucel (hydroxypropylcellulose) (HPC)) was 103 % of control.
In the case of `NC(=S)NNc1ccccn1`, the T/C (dose: 3.13 mg/kg/injection, schedule: Q01DX009 (ip), vehicle: saline) is reported as 108 % of control, the T/C (dose: 6.25 mg/kg/injection, schedule: Q01DX009 (ip), vehicle: saline) is reported as 96 % of control and the T/C (dose: 12.5 mg/kg/injection, schedule: Q01DX009 (ip), vehicle: saline) is reported as 101 % of control. For the same compound, the T/C [15] was 94 % of control.
With `CCCCC(O)(CCCC)CC(C)(C)C` the T/C [1] was 103 % of control, the T/C [2] was 92 % of control and the T/C [3] was 92 % of control.
With `C#CCCCCCl` the T/C (dose: 100.0 mg/kg/injection, schedule: Q01DX001 (ip), vehicle: other) was 103 % of control, the T/C (dose: 200.0 mg/kg/injection, schedule: Q01DX001 (ip), vehicle: other) was 104 % of control and the T/C (dose: 400.0 mg/kg/injection, schedule: Q01DX001 (ip), vehicle: other) was 108 % of control.

Reference: PubChem BioAssay AID248 (DTP/NCI, 2004)
